Data published in paper PMC7356696, “Synthesis, Antimicrobial Activity and Molecular Docking of Novel Thiourea Derivatives Tagged with Thiadiazole, Imidazole and Triazine Moieties as Potential DNA Gyrase and Topoisomerase IV Inhibitors” (Molecules, 2020).
Values after ≈ are worked out from the molar mass of the structure shown. Read-outs that look alike come from different tables or passages of the source.

Columns and labels:
Format in all cases: cell-based
[1] = system: Staphylococcus aureus ATCC 29213; experiment: Agar well diffusion, inhibition zone; set-up: dose or concentration left out as unconfirmed; conditions: ATCC29213, S. aureus ATCC 29213, NA = No Activity, read-out: Mean Diameter of Inhibition Zone (Mean ± SEM)
Excerpt: (§1) The antimicrobial activity of all synthesized compounds 2–13 was screened against a panel of two Gram-positive bacteria (Staphylococcus aureus ATCC 29213 and Bacillus subtilis ATCC 6633), two Gram-negative bacteria (Escherichia coli ATCC 25922, Pseudomonas aeruginosa ATCC 27853) and two fungi (Candida albicans ATCC 10231 and Aspergillus flavus ATCC 46283) using the agar well diffusion method. Ciprofloxacin and clotrimazole were used as antibacterial and antifungal standards, respectively. The results of this study were recorded as the average diameter of the inhibition zones (IZ) in Table 1. […] Additionally, the promising activity against S. aureus was observed from compounds 9, 12 and 13, however against B. subtilis from compounds 12 and 13.
(§2) The antimicrobial assay was performed in vitro for the target compounds 2–13 against Staphylococcus aureus ATCC 29213, Bacillus subtilis ATCC 6633 as Gram-positive bacteria, Escherichia coli ATCC 25922, Pseudomonas aeruginosa ATCC 27853 as Gram-negative bacteria and Candida albicans ATCC 10231, Aspergillus flavus ATCC 46283 as fungi. At the first, 100 μL of the test bacteria/fungi were grown in 10 mL of fresh media until they reached a count of approximately 10^8 cells/ml for bacteria or 10^5 cells/mL for fungi. […] The plates were incubated for 24 h at 37 °C (for bacteria and yeast) and for 72 h at 27 °C (for filamentous fungi), each test was repeated three times. After incubation, the microorganism’s growth was observed. Ciprofloxacin and clotrimazole were used as standard antibacterial and antifungal drugs, respectively. The resulting inhibition zone diameters were measured in millimeters using the diffusion technique. […] The different concentrations (triplicate) of each compound were tested and compared with standard drugs.

[2] = system: Bacillus subtilis ATCC 6633; experiment: Agar well diffusion, inhibition zone; set-up: dose or concentration left out as unconfirmed; conditions: ATCC6633, B. subtilis ATCC 6633, NA = No Activity, read-out: Mean Diameter of Inhibition Zone (Mean ± SEM)
Excerpt: as §1, §2

[3] = system: Pseudomonas aeruginosa ATCC 27853; experiment: Agar well diffusion, inhibition zone; set-up: dose or concentration left out as unconfirmed; conditions: ATCC27853, P. aeruginosa ATCC 27853, NA = No Activity, read-out: Mean Diameter of Inhibition Zone (Mean ± SEM)
Excerpt: as §1
(§3) The antimicrobial assay was performed in vitro for the target compounds 2–13 against Staphylococcus aureus ATCC 29213, Bacillus subtilis ATCC 6633 as Gram-positive bacteria, Escherichia coli ATCC 25922, Pseudomonas aeruginosa ATCC 27853 as Gram-negative bacteria and Candida albicans ATCC 10231, Aspergillus flavus ATCC 46283 as fungi. At the first, 100 μL of the test bacteria/fungi were grown in 10 mL of fresh media until they reached a count of approximately 10^8 cells/ml for bacteria or 10^5 cells/mL for fungi. […] of each sample (at 0.5 mg/mL) was added to each well (10 mm diameter holes cut in the agar gel). The plates were incubated for 24 h at 37 °C (for bacteria and yeast) and for 72 h at 27 °C (for filamentous fungi), each test was repeated three times. After incubation, the microorganism’s growth was observed. Ciprofloxacin and clotrimazole were used as standard antibacterial and antifungal drugs, respectively. The resulting inhibition zone diameters were measured in millimeters using the diffusion technique. […] The different concentrations (triplicate) of each compound were tested and compared with standard drugs.

[4] = system: Escherichia coli ATCC 25922; experiment: Agar well diffusion, inhibition zone; set-up: dose or concentration left out as unconfirmed; conditions: ATCC25922, E. coli ATCC 25922, NA = No Activity, read-out: Mean Diameter of Inhibition Zone (Mean ± SEM)
Excerpt: as §1, §3

[5] = system: Pseudomonas aeruginosa ATCC 27853; experiment: MIC, modified agar well diffusion method; conditions: ATCC27853, P. aeruginosa ATCC 27853, read-out: MIC (Mean ± SEM)
Excerpt: as §1, §3

[6] = system: Escherichia coli ATCC 25922; experiment: MIC, modified agar well diffusion method; conditions: ATCC25922, E. coli ATCC 25922, read-out: MIC (Mean ± SEM)
Excerpt: as §1, §3

[7] = system: Staphylococcus aureus ATCC 29213; experiment: MIC, modified agar well diffusion method; conditions: ATCC29213, S. aureus ATCC 29213, read-out: MIC (Mean ± SEM)
Excerpt: as §1, §3

[8] = system: Bacillus subtilis ATCC 6633; experiment: MIC, modified agar well diffusion method; conditions: ATCC6633, B. subtilis ATCC 6633, read-out: MIC (Mean ± SEM)
Excerpt: as §1, §3

[9] = system: Aspergillus flavus ATCC 46283; experiment: Agar well diffusion, inhibition zone; set-up: dose or concentration left out as unconfirmed; conditions: ATCC46283, A. flavus ATCC 46283, NA = No Activity, read-out: Mean Diameter of Inhibition Zone (Mean ± SEM)
Excerpt: as §1, §3

[10] = system: Candida albicans ATCC 10231; experiment: Agar well diffusion, inhibition zone; set-up: dose or concentration left out as unconfirmed; conditions: ATCC10231, C. albicans ATCC 10231, NA = No Activity, read-out: Mean Diameter of Inhibition Zone (Mean ± SEM)
Excerpt: as §1, §3

[11] = system: Aspergillus flavus ATCC 46283; experiment: MIC, modified agar well diffusion method; conditions: ATCC46283, A. flavus ATCC 46283, read-out: MIC (Mean ± SEM)
Excerpt: as §1, §3

[12] = system: Candida albicans ATCC 10231; experiment: MIC, modified agar well diffusion method; conditions: ATCC10231, C. albicans ATCC 10231, read-out: MIC (Mean ± SEM)
Excerpt: as §1, §3

[13] = system: human breast cancer (MCF-7) cells; experiment: MTT assay for cytotoxic activity; conditions: read-out: IC50 (Mean ± SEM), cytotoxic activity
Excerpt: (§4) The results are expressed as IC50 values (µM) and are depicted in Table 3.

[14] = MTT assay for cytotoxic activity; conditions: African green monkey, Vero cells (normal kidney epithelial cell line), read-out: IC50 (Mean ± SEM), cytotoxic activity
Excerpt: as §4

[15] = Homo sapiens, MCF7, MCF-7 cells

| Compound | zone of inhibition [1] | zone of inhibition [2] | zone of inhibition [3] | zone of inhibition [4] | MIC [5] | MIC [6] | MIC [7] | MIC [8] | zone of inhibition [9] | zone of inhibition [10] | MIC [11] | MIC [12] | IC50 [13, 15] | IC50 [14] | IC50 ([13]; MCF-7 cells) |
| --- | --- | --- | --- | --- | --- | --- | --- | --- | --- | --- | --- | --- | --- | --- | --- |
| O=C(O)c1cn(C2CC2)c2cc(N3CCNCC3)c(F)cc2c1=O [Ciprofloxacin, reference compound] | 24 ± 0.6 mm | 23 ± 0.2 mm | 23 ± 0.9 mm | 26 ± 0.25 mm | 2.9 ± 0.04 µg/mL (≈ 8.75 µM) | 2.9 ± 0.25 µg/mL (≈ 8.75 µM) | 5.85 ± 0.13 µg/mL (≈ 17.7 µM) | 2.9 ± 0.02 µg/mL (≈ 8.75 µM) |  |  |  |  |  |  |  |
| Clc1ccccc1C(c1ccccc1)(c1ccccc1)n1ccnc1 [Clotrimazole, reference compound] |  |  |  |  |  |  |  |  | 25 ± 0.4 mm | 27 ± 0.21 mm | 4.25 ± 0.05 µg/mL (≈ 12.3 µM) | 12.5 ± 0.15 µg/mL (≈ 36.2 µM) |  |  |  |
| CCOC(=O)CNC(=S)NC(=O)Cc1ccccc1 [Compound 2, Ethyl ((2-phenylacetyl)carbonothionyl)glycinate] | 9 ± 0.61 mm |  |  |  |  |  |  |  |  |  |  |  |  |  |  |
| O=C(Cc1ccccc1)NC(=S)NN1C(=O)C(=Cc2ccccc2)N=C1c1ccccc1 [Compound 6, 1-(4-Benzylidene-4,5-dihydro-5-oxo-2-phenylimidazol-1-yl)-3-(2-phenylacetyl)thiourea] | 27 ± 0.2 mm | 30 ± 0.26 mm | 21 ± 0.26 mm | 12 ± 0.1 mm | 2.48 ± 0.11 µg/mL (≈ 5.63 µM) | 7.8 ± 0.1 µg/mL (≈ 17.7 µM) | 5.12 ± 0.05 µg/mL (≈ 11.6 µM) | 2.29 ± 0.05 µg/mL (≈ 5.2 µM) | 9 ± 0.03 mm | 6 ± 0.22 mm | 26.2 ± 0.03 µg/mL (≈ 59.5 µM) | 91 ± 0.02 µg/mL (≈ 207 µM) | 23.7 ± 0.96 µM | 122.8 ± 0.4 µM |  |
| O=C(Cc1ccccc1)NC(=S)NNC(=O)C(=Cc1ccccc1)NC(=O)c1ccccc1 [Compound 7a, 1-(2-Benzamido-3-phenylacryloyl)-4-phenylacetylthiosemicarbazide] | 30 ± 0.22 mm | 33 ± 0.5 mm | 27 ± 0.03 mm | 18 ± 0.22 mm | 2.81 ± 0.01 µg/mL (≈ 6.13 µM) | 4.22 ± 0.12 µg/mL (≈ 9.2 µM) | 4.15 ± 0.22 µg/mL (≈ 9.05 µM) | 1.39 ± 0.5 µg/mL (≈ 3.03 µM) | 24 ± 0.02 mm | 15 ± 0.3 mm | 5.21 ± 0.11 µg/mL (≈ 11.4 µM) | 64 ± 0.41 µg/mL (≈ 140 µM) | 10.2 ± 0.65 µM | 149.1 ± 0.21 µM |  |
| O=C(Cc1ccccc1)NC(=S)NNC(=O)C(=Cc1cccs1)NC(=O)c1ccccc1 [Compound 7b, 1-(2-Benzamido-3-(thiophen-2-yl)acryloyl)-4-phenylacetylthiosemicarbazide] | 33 ± 0.01 mm | 35 ± 0.26 mm | 26 ± 0.21 mm | 18 ± 0.41 mm | 2.72 ± 0.15 µg/mL (≈ 5.85 µM) | 4.68 ± 0.13 µg/mL (≈ 10.1 µM) | 3.9 ± 0.26 µg/mL (≈ 8.39 µM) | 1.46 ± 0.1 µg/mL (≈ 3.14 µM) | 25 ± 0.15 mm | 16 ± 0.12 mm | 5.7 ± 0.01 µg/mL (≈ 12.3 µM) | 76 ± 0.31 µg/mL (≈ 164 µM) | 11.6 ± 0.59 µM | 133.3 ± 0.4 µM | 11.6 ± 0.59 µM |
| O=c1cc2nc(Cc3ccccc3)[nH]c(=S)n2[nH]1 [Compound 9, 2-Benzyl-3,4-dihydro-4-thioxopyrazolo[1,5-a][1,3,5]triazin-7(6H)-one] | 21 ± 0.3 mm | 18 ± 0.25 mm | 9 ± 0.25 mm |  | 17.6 ± 0.2 µg/mL (≈ 68.2 µM) |  | 9.92 ± 0.3 µg/mL (≈ 38.4 µM) | 8.6 ± 0.25 µg/mL (≈ 33.3 µM) | 15 ± 0.33 mm | 9 ± 0.2 mm | 20.4 ± 0.3 µg/mL (≈ 79.2 µM) | 94 ± 0.1 µg/mL (≈ 364 µM) | 26.4 ± 0.46 µM | 62.45 ± 0.2 µM |  |
| N#CCc1nnc(NC(=O)Cc2ccccc2)s1 [Compound 10, N-(5-(Cyanomethyl)-1,3,4-thiadiazol-2-yl)-2-phenylacetamide] | 15 ± 0.42 mm | 12 ± 0.21 mm | 6 ± 0.02 mm |  |  |  |  |  | 6 ± 0.41 mm |  |  |  |  |  |  |
| N=c1oc2ccccc2cc1-c1nnc(NC(=O)Cc2ccccc2)s1 [Compound 11, N-(5-(2-Imino-2H-chromen-3-yl)-1,3,4-thiadiazol-2-yl)-2-phenylacetamide] | 12 ± 0.3 mm | 6 ± 0.53 mm |  |  |  |  |  |  |  |  |  |  |  |  |  |
| O=C(Cc1ccccc1)NC(=S)N1NC(=O)C(=Cc2ccccc2)N=C1c1ccccc1 [Compound 12, 5-Benzylidene-5,6-dihydro-N-(1-hydroxy-2-phenylethylidene)-6-oxo-3-phenyl-1,2,4-triazine-2(1H)-carbothioamide] | 22 ± 0.05 mm | 23 ± 0.01 mm | 17 ± 0.2 mm | 5 ± 0.58 mm | 12.5 ± 0.2 µg/mL (≈ 28.4 µM) | 27 ± 0.02 µg/mL (≈ 61.3 µM) | 5.22 ± 0.03 µg/mL (≈ 11.8 µM) | 2.3 ± 0.05 µg/mL (≈ 5.22 µM) | 18 ± 0.03 mm | 14 ± 0.21 mm | 15.6 ± 0.01 µg/mL (≈ 35.4 µM) | 85 ± 0.15 µg/mL (≈ 193 µM) | 35.9 ± 0.85 µM | 79.19 ± 0.28 µM |  |
| O=C(Cc1ccccc1)Nc1nnc(C(=Cc2cccs2)NC(=O)c2ccccc2)s1 [Compound 13, N-(1-(5-(2-Phenylacetamido)-1,3,4-thiadiazol-2-yl)-2-(thiophen-2-yl)vinyl)benzamide] | 21 ± 0.1 mm | 24 ± 1.11 mm | 15 ± 0.11 mm | 6 ± 0.15 mm | 13.41 ± 0.1 µg/mL (≈ 30 µM) | 33 µg/mL (≈ 73.9 µM) | 5.6 ± 0.15 µg/mL (≈ 12.5 µM) | 2.72 ± 1.11 µg/mL (≈ 6.09 µM) | 18 ± 0.22 mm | 12 ± 0.46 mm | 14.6 ± 0.2 µg/mL (≈ 32.6 µM) | 83 ± 0.22 µg/mL (≈ 186 µM) | 37.7 ± 0.93 µM | 84.11 ± 0.32 µM |  |
